Laboratory results as given in patent publication US5516777A, “Condensed pyrazole derivatives, and androgen inhibitor” (Otsuka Pharmaceutical Co., Ltd., priority 1992, dated 1996).

How the values were obtained:
[1] = In vitro drug metabolism in rat liver extract; assay type: in vitro ADME, male Wistar rats; conditions: pH 7.4, 37° C.; for remaining at 5 min / remaining at 0.25 h / remaining at 0.5 h / remaining at 1 h: rat liver extract; for remaining at 5 min: read-out: Residual amount of test compound, 5 min.; for remaining at 0.25 h: 15 min., read-out: Residual amount of test compound, 15 min.; for remaining at 0.5 h: 30 min., read-out: Residual amount of test compound, 30 min.; for remaining at 1 h: 60 min., read-out: Residual amount of test compound, 60 min.; for half-life: half-life in the rat liver extract, read-out: Half-time period
Procedure: 2. In vitro drug metabolism in rat liver extract
The resistance of the compound against metabolic degradation by rat liver extract was investigated.
The male Wistar rats (weighing about 200 g) were used after fasting for 24 hours. The rat was sacrificed under ether anesthesia, and the livers were removed and were placed onto the ice.
The liver was minced with scissors under ice-cooling, and homogenized in the presence of 4 volumes of 1.15% KCl-0.1M phosphate buffer (pH 7.4) with a Potter type homogenizer. The homogenates were centrifuged at 9,000×g for 10 minutes at 4° C., and the supernatant filtered through the cheese-cloth was used as an enzyme solution.
The constitution of the reaction mixture was shown in below. 0.1M Buffer was sufficiently bubbled in 95% O2 -5% CO2 gas before use.
Glucose 6-phosphate (60.8 mg.ml)
Nicotineamide (9.16 mg/ml)
The tested samples were dissolved in dimethyl sulfoxide. MgCl2 ·6H2 O was dissolved in a distilled water, and all other reagents were dissolved in 0.1M phosphate buffer. The reaction was initiated by adding enzyme solution, and shaked at 37° C. with 120 cycles/minutes in Spitz test tubes with stoppers. The reaction was stopped by adding methanol after 5, 15, 30 and 60 minutes.
After termination of the reaction, samples were mixed by using of a Vortex mixer, and centrifuged at 3,000 rpm for 10 minutes. The supernatant was applied to a high-performance liquid chromatography of which conditons are shown in below. A residual amount of the mother compound was determined at certain time intervals, whererby half-life of the compound in the rat liver extract was calculated.
Column: Chemcosorb 5C18-300 Å 4.6 mm diameter and 150 mm length
Colume temperature: 50° C.

[2] = molecular target: T1, rat prostate androgen receptor (Rattus norvegicus, UniProt P15207); conditions: 1 nM ^3 H-mibolerone, 20 hours at 0° C., rat ventral prostate cytosol; read-out: Inhibitory activity on mibolerone specific binding [IC50 (M)]
T1 sequence (P15207 1-902): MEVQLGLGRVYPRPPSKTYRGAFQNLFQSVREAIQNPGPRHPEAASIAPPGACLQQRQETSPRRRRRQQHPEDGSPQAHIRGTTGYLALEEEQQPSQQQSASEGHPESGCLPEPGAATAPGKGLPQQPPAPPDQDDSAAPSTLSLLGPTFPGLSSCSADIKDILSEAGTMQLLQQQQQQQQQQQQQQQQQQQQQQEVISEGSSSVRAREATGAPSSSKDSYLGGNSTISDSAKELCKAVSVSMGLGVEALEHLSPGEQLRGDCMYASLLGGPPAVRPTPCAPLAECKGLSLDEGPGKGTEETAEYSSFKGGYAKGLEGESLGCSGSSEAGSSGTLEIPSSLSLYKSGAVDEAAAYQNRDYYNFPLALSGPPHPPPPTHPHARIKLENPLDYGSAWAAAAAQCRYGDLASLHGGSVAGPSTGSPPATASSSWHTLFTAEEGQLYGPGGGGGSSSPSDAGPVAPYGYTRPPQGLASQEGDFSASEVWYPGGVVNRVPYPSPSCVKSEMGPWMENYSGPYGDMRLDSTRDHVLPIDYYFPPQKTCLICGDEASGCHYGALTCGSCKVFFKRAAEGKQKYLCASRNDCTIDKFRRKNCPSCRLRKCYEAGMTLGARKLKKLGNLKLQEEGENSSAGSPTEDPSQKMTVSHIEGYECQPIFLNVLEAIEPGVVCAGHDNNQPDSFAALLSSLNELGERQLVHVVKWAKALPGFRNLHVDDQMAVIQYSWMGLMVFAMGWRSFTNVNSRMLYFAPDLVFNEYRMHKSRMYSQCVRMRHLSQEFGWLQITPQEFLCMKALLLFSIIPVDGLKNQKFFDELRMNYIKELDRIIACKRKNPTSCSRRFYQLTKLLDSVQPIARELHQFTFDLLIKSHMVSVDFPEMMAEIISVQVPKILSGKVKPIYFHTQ
Procedure: Assay of inhibitory activity to binding of ^3 H-mibolerone on rat prostate androgen receptor
(1) Preparation of Cytosol from Rat Prostate
The rats were killed 24 hours after castration, and the ventral prostate glands were removed, and was gently homogenized, with three volume of buffer solution A (1.5 mM EDTA, 2 mM dithiothreitol, 10 mM molybdate sodium, 10% by volume of glycerol, 10 mM NaF, 25 mM phosphate sodium, pH 7.2) on ice-water bath, in Polytron, and Potter type homogenizer. The obtained homogenate was filtrated through double gauze, and centrifuged at 105,000×g for 60 minutes at 4° C., and the supernatant was obtained as cytoplasm fraction.
(2) Measurement of Specific binding of ^3 H-mibolerone to Prostate Cytoplasm Androgen Receptor
To the cytoplasm fraction obtained in (1) was added ^3 H-mibolerone (87.0 Ci/millimol), so that a final concentration is adjusted to 1 nM, and at the same time, in order to block binding of ^3 H-mibolerone to progestin receptor, triamsinolone acetonide was added to a final concentration of 5 μM, and the final volume was adjusted to 0.4 ml with buffer solution A, and the reaction mixture was incubated for 20 hours at 0° C. After incubation, 0.5 ml of 60% hydroxylapatite slurry (washed and equilibrate with a buffer solution B: 10 mM NaH2 PO4, 20 mM tris-hydrochloric acid, pH 7.2) was added, and incubated for 10 minutes at 0° C., the solution was transferred onto a glass fiber filter, and washed five times with 5 ml portions of buffer solution B containing 0.1% (weight/volume) of Triton X-100, to remove free ^3 H-mibolerone. This glass fiber was transferred into vial, and 10 ml of aquasol- 2 was added, and the radioactivity was measured, and the total binding amount of ^3 H-mibolerone on prostate cytoplasm androgen receptor was determined.
The nonspecific binding amount was determined similarly by adding an unlabeled 5α-DHT in the reaction solution to a final concentration of 1 μM. The difference between the total binding amount and nonspecific binding amount was determined as the specific binding amount on the androgen receptor.
(3) Inhibitory Activity of Sample Compounds on ^3 H-mibolerone Specific Binding
The various concentrations of compounds obtained in the experiments were added simultaneously with ^3 H-mibolerone to incubate same as in (2), and the specific binding amount of ^3 H-mibolerone on androgen receptor was determined. Comparing this value with the value obtained in (2), the IC50 value of inhibitory activity of the compounds on ^3 H-mibolerone specific binding was determined.

| remaining at 5 min [1] [%] | remaining at 0.25 h [1] [%] | remaining at 0.5 h [1] [%] | remaining at 1 h [1] [%] | half-life [1] [min] | IC50 [2] [M] | SMILES |
| --- | --- | --- | --- | --- | --- | --- |
| 54.3 | 32.9 | 31.4 | 24.4 | 6.5 | – | COc1cc(-c2cnn3c(O)ccnc23)ccc1Sc1ccccc1 [Compound B2, reference compound] |
| 56.9 | 44.6 | 49.9 | 38.2 | 30 | 7.4e-08 | COc1cc(-c2cnn3c(O)ncnc23)ccc1Cc1ccccc1 [Example 4, 8-(4-benzyl-3-methoxy)phenyl-4-hydroxypyrazolo[1,5-a]-1,3,5-triazine] |
| – | – | – | – | – | 6.2e-08 | COc1cc(-c2cnn3c(O)ncnc23)ccc1Cc1ccccc1C [Example 7] |
| – | – | – | – | – | 1.1e-07 | COc1cc(-c2cnn3c(O)ncnc23)ccc1Cc1ccc(C)cc1 [Example 8] |
| – | – | – | – | – | 9.5e-08 | COc1ccccc1Cc1ccc(-c2cnn3c(O)ncnc23)cc1OC [Example 9] |
| 77.6 | 57.1 | 62 | 55.2 | > 60 | 1.2e-08 | COc1cccc(Cc2ccc(-c3cnn4c(O)ncnc34)cc2C)c1 [Example 10, 4-hydroxy-8-[4-(3-methoxyphenylmethyl)-3-methyl]phenylpyrazolo[1,5-a]-1,3,5-triazine] |
| – | – | – | – | – | 2.6e-08 | COc1cccc(Cc2ccc(-c3cnn4c(O)ccnc34)cc2OC)c1 [Example 24, 7-hydroxy-3-[3-methoxy-4-(3-methoxyphenylmethyl)phenyl]pyrazolo[1,5-a]pyrimidine] |
| – | – | – | – | – | 1.3e-08 | COc1cccc(Cc2ccc(-c3cnn4c(O)ccnc34)cc2C)c1 [Example 26, 7-hydroxy-3-[4-(3-methoxyphenylmethyl)-3-methyl]phenylpyrazolo[1,5-a]pyrimidine] |
| – | – | – | – | – | 8.2e-08 | Cc1cccc(Cc2ccc(-c3cnn4c(O)ccnc34)cc2)c1 [Example 27, 7-hydroxy-3-[4-(3-methylphenylmethyl)phenyl]pyrazolo[1,5-a]pyrimidine] |
| – | – | – | – | – | 2e-08 | Cc1cccc(Cc2ccc(-c3cnn4c(O)ncnc34)cc2C)c1 [Example 29, 4-hydroxy-8-[3-methyl-4-(3-methylphenylmethyl)phenyl]pyrazolo[1,5-a]-1,3,5-triazine] |
| – | – | – | – | – | 2.5e-08 | Cc1cccc(Cc2ccc(-c3cnn4c(O)ccnc34)cc2C)c1 [Example 30] |

Second part, the compound before the results:

| SMILES | remaining at 5 min [1] [%] | remaining at 0.25 h [1] [%] | remaining at 0.5 h [1] [%] | remaining at 1 h [1] [%] | half-life [1] [min] | IC50 [2] [M] |
| --- | --- | --- | --- | --- | --- | --- |
| Oc1ncnc2c(-c3ccc(Sc4ccccc4)cc3)cnn12 [Compound A1, reference compound] | 32.3 | 13.8 | 13.1 | 13 | 2.4 | – |
| Cc1cc(-c2cnn3c(O)ncnc23)ccc1Sc1ccccc1 [Compound A2, reference compound] | 32.5 | 14.8 | 13.7 | 12.3 | 2.5 | – |
| COc1cc(-c2cnn3c(O)ncnc23)ccc1Sc1ccccc1 [Compound A3, reference compound] | 38.3 | 18.6 | 19.2 | 16.5 | 3 | – |
| Cc1cc(-c2cnn3c(O)ccnc23)ccc1Sc1ccccc1 [Compound B1, reference compound] | 46.5 | 25.6 | 25.1 | 27 | 4.6 | – |
| Oc1ccnc2c(-c3ccc(Cc4ccccc4)cc3)cnn12 [Example 2, 3-(4-benzylphenyl)-7-hydroxypyrazolo[1,5-a]pyrimidine] | 81.3 | 86.1 | 84.2 | 80.2 | > 60 | 2.8e-07 |
| Oc1ncnc2c(-c3ccc(Cc4ccccc4)c(Cl)c3)cnn12 [Example 3, 8-(4-benzyl-3-chloro)phenyl-4-hydroxypyrazolo[1,5-a]-1,3,5-triazine] | – | – | – | – | – | 4e-07 |
| Cc1cc(-c2cnn3c(O)ncnc23)ccc1Cc1ccccc1 [Example 5, 8-(4-benzyl-3-methyl)phenyl-4-hydroxypyrazolo[1,5-a]-1,3,5-triazine] | 93.7 | 89.9 | 82.7 | 83.8 | > 60 | 3e-08 |
| Cc1ccc(Cc2ccc(-c3cnn4c(O)ncnc34)cc2)cc1 [Example 16, 4-hydroxy-8-[4-(4-methylphenylmethyl)phenyl]pyrazolo[1,5-a]-1,3,5-triazine] | – | – | – | – | – | 3e-07 |
| COc1ccccc1Cc1ccc(-c2cnn3c(O)ncnc23)cc1 [Example 17, 4-hydroxy-8-[4-(2-methoxyphenylmethyl)phenyl]pyrazolo[1,5-a]-1,3,5-triazine] | – | – | – | – | – | 8.7e-07 |
| COc1ccc(Cc2ccc(-c3cnn4c(O)ncnc34)cc2)cc1 [Example 18, 4-hydroxy-8-[4-(4-methoxyphenylmethyl)phenyl]pyrazolo[1,5-a]-1,3,5-triazine] | 96.5 | 86.2 | 71.6 | 52.4 | > 60 | – |
| CCCC(c1ccccc1)c1ccc(-c2cnn3c(O)ncnc23)cc1 (stereo not drawn) [Example 20, 4-hydroxy-8-[4-(α-propylbenzyl)phenyl]pyrazolo[1,5-a]-1,3,5-triazine] | – | – | – | – | – | 2e-07 |
| Oc1ncnc2c(-c3ccc(Cc4cccc(Cl)c4)cc3)cnn12 [Example 21, 8-[4-(3-chlorophenylmethyl)phenyl]-4-hydroxypyrazolo[1,5-a]-1,3,5-triazine] | – | – | – | – | – | 1.1e-07 |
| Oc1ncnc2c(-c3ccc(Cc4ccc(Cl)cc4)cc3)cnn12 [Example 22, 8-[4-(4-chlorophenylmethyl)phenyl]-4-hydroxypyrazolo[1,5-a]-1,3,5-triazine] | – | – | – | – | – | 9.3e-08 |
| COc1cccc(C(C)c2ccc(-c3cnn4c(O)ncnc34)cc2)c1 (stereo not drawn) [Example 23, 4-hydroxy-8-{4-[1-(3-methoxyphenyl)ethan-1-yl)phenyl}pyrazolo[1,5-a]-1,3,5-triazine] | – | – | – | – | – | 2.6e-08 |
| CC(c1ccccc1)c1ccc(-c2cnn3c(O)ccnc23)cc1 (stereo not drawn) [Example 25, 7-hydroxy-3-[4-(α-methylbenzyl)phenyl]pyrazolo[1,5-a]pyrimidine] | – | – | – | – | – | 2.8e-08 |
| Oc1ncnc2c(-c3ccc(Cc4ccc5c(c4)OCO5)cc3)cnn12 [Example 31, 4-hydroxy-8-[4-(3,4-methylenedioxyphenylmethyl)phenyl]pyrazolo[1,5-a]-1,3,5-triazine] | – | – | – | – | – | 7.5e-07 |
| COc1cc(Cc2ccc(-c3cnn4c(O)ncnc34)cc2)cc(OC)c1 [Example 32, 4-hydroxy-8-[4-(3,5-dimethoxyphenylmethyl)phenyl]pyrazolo[1,5-a]-1,3,5-triazine] | – | – | – | – | – | 7.7e-07 |
| CC(C)(c1ccccc1)c1ccc(-c2cnn3c(O)ncnc23)cc1 [Example 33, 4-hydroxy-8-[4-(2-phenylporpan-2-yl)phenyl]pyrazolo[1,5-a]-1,3,5-triazine] | – | – | – | – | – | 1.2e-07 |
| CC(C)(c1ccccc1)c1ccc(-c2cnn3c(O)ccnc23)cc1 [Example 34, 7-hydroxy-3-[4-(2-phenylpropan-2-yl)phenyl]pyrazolo[1,5-a]pyrimidinie] | – | – | – | – | – | 9e-08 |
| Oc1ccnc2c(-c3ccc(Cc4ccc5c(c4)OCO5)cc3)cnn12 [Example 35, 7-hydroxy-4-[4-(3,4-methylenedioxyphenylmethyl)phenyl]pyrazolo[1,5-a]pyrimidine] | – | – | – | – | – | 2.2e-07 |
